Experiment [1] deals with Mycobacterium tuberculosis. The experiment is described as follows: Antimycobacterial activity against Mycobacterium tuberculosis H37Ra by Microplate Alamar Blue Assay. Type of experiment: functional. On the technique in general: The colour change of resazurin is a common sign of viable cells or microbes.
Experiment [2] concerns Vero. The experiment is described as follows: Cytotoxicity against african green monkey Vero cells at 50 ug/mL by SRB assay. Type of experiment: cell-based. As to conditions: Chlorocebus sabaeus. Background: In SRB staining, fixed cells bind dye roughly in proportion to their protein.
The test system of experiment [3] is Plasmodium falciparum. The experiment is described as follows: Antimalarial activity as reduced parasitaemia against multidrug-resistant Plasmodium falciparum K1 by [3H]hypoxanthine uptake. The class given is functional, organism-based.
Experiment [4] in a line: Cytotoxicity against human BC1 cells. The class given is functional, cell-based.

Converted amounts (≈) assume the structure as drawn. Where a SMILES comes first, the peptide text is derived from it. [ ]: non-standard residue; d: D form. aIle = CC[C@@H](C)[C@H](N)C(=O)O; dPhLac = O=C(O)[C@H](O)Cc1ccccc1; Sar = CNCC(=O)O

This is an account of results in ChEMBL document CHEMBL1150642, “Hirsutellide A, a new antimycobacterial cyclohexadepsipeptide from the entomopathogenic fungus Hirsutella kobayasii” (J Nat Prod, 2002).

Broadly, the MIC is the lowest concentration found to suppress growth. What is called IC50 is the point on the concentration scale where inhibition reaches its midpoint.

Compound `CC[C@@H](C)[C@@H]1NC(=O)[C@@H](Cc2ccccc2)OC(=O)CN(C)C(=O)[C@H]([C@H](C)CC)NC(=O)[C@@H](Cc2ccccc2)OC(=O)CN(C)C1=O` [HIRSUTELLIDE A] (cyclo([Sar][dPhLac][aIle][Sar][dPhLac][aIle])) returned an MIC in experiment [1] of 6 µg/mL (≈ 9.03 µM). For the same compound, the IC50 in experiment [2] is 2.8 µg/mL (≈ 4.21 µM). In addition, the Activity result in experiment [3] was “Not toxic”.

Compound `C[C@@H]1CC[C@H]2[C@@H](C)C(=O)O[C@@H]3O[C@@]4(C)CC[C@@H]1[C@]32OO4` [ARTEMISININ] came in with an IC50 in experiment [3] of 0.001 µg/mL (≈ 0.00354 µM). On to `NNC(=O)c1ccncc1` [ISONIAZID], for which inhibition of growth in experiment [1] (MIC) required 0.04 µg/mL (≈ 0.292 µM). In experiment [4], `Cc1c2ccncc2c(C)c2c1[nH]c1ccccc12` [ELLIPTECINE] gave a half-maximal inhibitory concentration (IC50) of 0.3 µg/mL (≈ 1.22 µM). `NC[C@H]1O[C@H](O[C@H]2[C@H](O)[C@@H](O[C@H]3O[C@H](CO)[C@@H](O)[C@H](N)[C@H]3O)[C@H](N)C[C@@H]2N)[C@H](O)[C@@H](O)[C@@H]1O.O=S(=O)(O)O` [KANAMYCIN SULFATE] gave an MIC in experiment [1] of 2 µg/mL.
